Experimental data reported in patent publication US20250135042A1, “Perfluorocarbon-Containing Contrast Agent for Use in MRI Imaging of Body Cavities” (University of Pittsburgh - Of the Commonwealth System of …, priority 2023, published 2025).

Columns and labels:
Stokes-Einstein radius = format: physicochemical
[1] = 1H relaxivity of serial two-fold dilutions in tubes, from T1 weighted images; format: physicochemical; details: 7 Tesla, 37° C.
Experimental: FIGS. 2A and 2B: Graphical plots and T1 weighted images of individual tubes containing serial two-fold dilutions of Gadobutrol without ≥10% w/v PFC emulsion (FIG. 2A) or with ≥10% w/v PFC emulsion (FIG. 2B) display that ≥10% PFC emulsion diminishes the ^1H relaxivity of Gadobutrol from 3.95 L/mmol/s (FIG. 2A) to 2.05 L/mmol/s (FIG. 2B) at 7 Tesla scanner. T1 relaxation rate of water protons (R1=1/T1) was calculated from the slope of the line plotted by computing T1 relaxation time from T1 weighted images acquired at identical magnetic field strength of 7 Tesla at 37° C.
While gadolinium chelates are characterized by longitudinal and transverse relaxivity, denoted r1 and r2, respectively, (sensitivity to improve image contrast) gadolinium chelates are generally referred to as T1 agents owing to their larger effect on tissue T1 than on T2 for positive image contrast in T1-weighted images.

- Stokes-Einstein radius (median for the emulsion particles) (Stokes-Einstein radius): 0.4 nm
- 1H relaxivity of Gadobutrol ([1]; with ≥10% w/v PFC emulsion): 2.05 L/mmol/s
- 1H relaxivity of Gadobutrol ([1]; without ≥10% w/v PFC emulsion): 3.95 L/mmol/s
Structure (SMILES): O=C([O-])CN1CCN(CC(=O)[O-])CCN([C@H](CO)[C@H](O)CO)CCN(CC(=O)[O-])CC1.[Gd+3] (racemic) [Gadobutrol, gadobutrol]
